Assays:
Nrf2 = Nrf2 expression and subcellular localization (immunostaining, Western blot, qRT-PCR) in TNBC cells; format: cell-based, human; conditions: niclosamide 2 μM, 24 h; for Nrf2 protein level: Western blot; for Nrf2 mRNA level: qRT-PCR
Experimental: (§1) Total RNA was extracted from cells using TRIzol Reagent (ThermoFisher Scientific, Waltham, MA, USA) and the RNA was reverse-transcribed using a high-capacity cDNA reverse transcription kit (ThermoFisher Scientific, Waltham, MA, USA) according to the manufacturer’s protocol. Quantitative RT-PCR was performed with Takara Taq Hot Start Version (TaKaRa Biotechnology, Shiga, Japan) or Power SYBR Green PCR master mix (Bio-Rad, Hercules, CA, USA). Primer sequences are shown in Supplemental Table S1. The relative mRNA expression was determined by the 2^−∆∆Ct method. Additionally, 18S was used as a housekeeping gene for normalization.
(§2) Cells and tumor tissues were lysed in Pierce™ RIPA buffer (ThermoFisher Scientific, Waltham, MA, USA) supplemented with Halt™ Protease and Phosphatase Inhibitor Cocktail (ThermoFisher Scientific, Waltham, MA, USA). Homogenates were centrifuged, and supernatants were used for protein measurement via Pierce™ BCA Protein Assay Kit (ThermoFisher Scientific, Waltham, MA, USA). […] Western blot samples were prepared in Laemmli sample buffer (Bio-Rad Laboratories, Hercules, CA, USA). They were loaded onto a SDS–PAGE gel and transferred onto a PVDF membrane (Bio-Rad Laboratories, Hercules, CA, USA). The membrane was blocked and antibodies diluted in 5% nonfat dry milk (Bio-Rad Laboratories, Hercules, CA, USA) or in 5% bovine serum albumin (Irvine Scientific, Santa Ana, CA, USA) were used. Protein bands were visualized using Pierce™ ECL Western Blotting Substrate (ThermoFisher Scientific, Waltham, MA, USA) and developed on the autoradiography film (Santa Cruz, Dallas, TX, USA). Primary antibodies were purchased either from Cell Signaling (Danvers, MA, USA) [anti-GPX4 (#52455), anti-FTH (#4393), anti-HSP60 (#12165), anti-phospho-p70S6K (#9205), anti-p70S6K (#2708)] or from Abcam (Waltham, MA, USA) [Nrf2 (#ab62352)]. Secondary antibody Horseradish peroxidase-conjugated goat anti-rabbit IgG (#1706515) was purchased from Bio-Rad Laboratories (Hercules, CA, USA). For quantification of protein levels by the densitometric analysis, the experiment was carried out in triplicate and the data were collected from the resultant three Western blots.

GPX4, FTH1, p-S6K = experiment: Western blot of GPX4, ferritin heavy chain and p-S6K in TNBC cells; format: cell-based, human; conditions: niclosamide 2 μM, 24 h
Experimental: as §2

MB231 and TXBR100 cells [1] = experiment: Reactive oxygen species assay (DCFH-DA); format: cell-based, human; conditions: niclosamide 2.5 and/or 5 μM, 24 h
Experimental: The probe of DCFH-DA was used to measure ROS. Briefly, cells were grown in a 96-well plate and then incubated with DCFH-DA (10 µM) at 37 °C for 30 min in dark. At the end of the incubation, cells were treated with different concentrations of niclosamide. Fluorescence intensity was monitored with a Microplate Reader (Glomax multi-detection system, Promega, Madison, WI, USA) at the excitation and emission wavelengths of 485 and 528 nm, respectively. Cellular fluorescence levels were expressed as % of control group (i.e., no treatment with niclosamide).

MB231 and TXBR100 cells [2] = experiment: Lipid peroxidation (malondialdehyde) assay; format: cell-based, human; conditions: niclosamide 2.5 and/or 5 μM, 24 h
Experimental: Control and niclosamide-treated cells were used for measurement of cellular glutathione levels as instructed in the manufacturer’s protocol (GSH-Glo assay, Promega, Madison, WI, USA). The levels of malondialdehyde were measured using lipid peroxidation kit [Lipid Peroxidation (MDA) Assay Kit (MAK085), Millipore-sigma, St. Louis, MO, USA].

[3] = design: method as in PMID 31078739, PMID 33737681; conditions: oral; cited from earlier work
MB231 and TXBR100 cells [4] = experiment: Matrigel cell invasion assay; format: cell-based; conditions: Homo sapiens, niclosamide 2.5 μM, 24 h, read-out: inhibition of cell invasion and migration
Experimental: The effect of niclosamide on cell invasion was monitored using Corning® BioCoat™ Matrigel® Invasion assay kit according to the manufacturer’s instructions. Briefly, cells were serum-starved and their invasion to the other side of the membrane was analyzed in the presence or absence of niclosamide for 24 h. At the end of this treatment, non-invaded cells on the top side of the membrane were removed by scrubbing. Cells which invaded the other side of the membrane were fixed with 100% methanol, stained with crystal violet and counted under an inverted microscope; images were also captured.

[5] = tested on: TNBC cells (MB231 and TXBR100); experiment: MTT cell proliferation / viability assay; format: cell-based, human; conditions: niclosamide 2 μM, 72 h, MB231 and TXBR100
Experimental: Cells were seeded in 96-well plates; after 24 h, niclosamide treatment was initiated. Cells were then cultured for 72 h with fresh medium containing freshly prepared niclosamide supplied every 24 h. Cells were washed with phosphate-buffered saline twice followed by MTT reagent (ATCC). Treatment and lysis of the cells were done as per the manufacturer’s instructions. Absorbance of the lysate was measured at 550 nm. Cell viability assay with various cell-death inhibitors was also performed as described above. Cells were treated with niclosamide (1 µM) along with cell death inhibitors (10 µM), except hydroxychloroquine (25 µM) for 48 h.

MB231 xenograft tumors = experiment: qRT-PCR and Western blot of xenograft tumor tissue; format: in vivo, mouse; conditions: niclosamide 4 mg/kg daily i.p.
Experimental: as §1, §2
Female athymic nude mice (4-week-old) were purchased from Jackson Laboratories and housed under standard conditions. MDA-MB231 cells were injected into lower mammary fat pad (5 × 10^6 cells). All cells were suspended in serum-free media and Matrigel (1:1 ratio), with 100 µL of suspension being injected into each mouse. Mice were treated by daily intraperitoneal injection of niclosamide (4 mg/kg/day) and vehicle (dimethylsulfoxide) control. The treatment began when the tumor size was 100–150 mm^3. Tumor size was measured biweekly with a caliper, with tumor volume calculated using the formula (width^2 × length)/2. Tumors were allowed to grow for 7 weeks; mice were then euthanized via isoflurane […] and tumors harvested. The animal study protocol was approved by the Texas Tech University Health Sciences Center Institutional Animal Care and Use Committee (IACUC protocol number 18005) and the experiments were conducted in the same institution. RNA and protein were prepared from the tumor tissue for qRT-PCR and Western blotting.

## O=C(Nc1ccc([N+](=O)[O-])cc1Cl)c1cc(Cl)ccc1O [niclosamide]
Nrf2; MB231
  Nrf2 protein level: decreased
  Nrf2 mRNA level: decreased
Nrf2; TXBR100
  Nrf2 protein level: significantly decreased
  Nrf2 mRNA level: did not alter
GPX4, FTH1, p-S6K; MB231 and TXBR100
  glutathione peroxidase 4 protein levels: decreased
GPX4, FTH1, p-S6K; MB231 and TXBR100 (more pronounced in TXBR100)
  ferritin levels: lower
GPX4, FTH1, p-S6K; both TNBC cell lines
  p70S6K and phospho-p70S6K levels (mTOR signaling): profound decrease
MB231 and TXBR100 cells [1]
  ROS levels: increase
MB231 and TXBR100 cells [2]
  malondialdehyde levels (lipid peroxidation): increase
[3]
  bioavailability when given orally: low
MB231 and TXBR100 cells [4]
  inhibition at […]: > 75%
[5]
  decrease in cell proliferation: > 50%
MB231 xenograft tumors; Western blot
  Nrf2 protein levels in tumors: markedly decreased
  ferritin heavy chain protein levels in tumors: decreased
MB231 xenograft tumors; qRT-PCR
  Nrf2 mRNA level in tumors: markedly decreased
  SLC7A11 mRNA level in tumors: markedly decreased
  SLC38A5 mRNA level in tumors: markedly decreased

Source: article PMC10967572, “Induction of Oxidative Stress and Ferroptosis in Triple-Negative Breast Cancer Cells by Niclosamide via Blockade of the Function and Expression of SLC38A5 and SLC7A11” (Antioxidants, 2024)
